Data from patent publication US20060058317A1, “Oxazolidinone derivatives as antibacterial” (AstraZeneca AB, priority 2002, published 2006).
Values after ≈ are worked out from the molar mass of the structure shown.

Assays:
Format in all cases: cell-based
[1] = test system: Moraxella catarrhalis; assay: MIC in Mueller-Hinton broth, Moraxella catarrhalis; settings: Mueller-Hinton broth with hemin and NAD, aerobic, 24 hours, 37° C., 5×10^4 CFU/well
Method: (§1) The following results were obtained on a standard in-vitro test system. The activity is described in terms of the minimum inhibitory concentration (MIC) determined by the agar-dilution technique with an inoculum size of 10^4 CFU/spot. Typically, compounds are active in the range 0.01 to 256 μg/ml.
(§2) Streptococci and enterococci were tested on agar supplemented with 5% defibrinated horse blood, an inoculum of 10^4 CFU/spot and an incubation temperature of 37° C., in an atmosphere of 5% carbon dioxide for 48 hours—blood is required for the growth of some of the test organisms. Fastidious Gram negative organisms were tested in Mueller-Hinton broth, supplemented with hemin and NAD, grown aerobically for 24 hours at 37° C., and with an innoculum of 5×10^4 CFU/well.

[2] = test system: Staphylococcus aureus MRQR (methicillin resistant and quinolone resistant); assay: MIC by agar dilution, Staphylococcus aureus MRQR; settings: S. aureus MRQR, 10^4 CFU/spot, 37° C., 24 hours
Method: as §1
(§3) Staphylococci were tested on agar, using an inoculum of 10^4 CFU/spot and an incubation temperature of 37° C., for 24 hours—standard test conditions for the expression of methicillin resistance.

[3] = test system: Enterococcus faecium; assay: MIC by agar dilution, Enterococcus faecium; settings: agar with 5% defibrinated horse blood, 10^4 CFU/spot, 37° C., 5% carbon dioxide, 48 hours
Method: as §1, §2

[4] = test system: Streptococcus pneumoniae; assay: MIC by agar dilution, Streptococcus pneumoniae; settings: agar with 5% defibrinated horse blood, 10^4 CFU/spot, 37° C., 5% carbon dioxide, 48 hours
Method: as §1, §2

[5] = test system: Staphylococcus aureus MSQS (methicillin sensitive and quinolone sensitive); assay: MIC by agar dilution, Staphylococcus aureus MSQS; settings: S. aureus MSQS, 10^4 CFU/spot, 37° C., 24 hours
Method: as §1, §3

[6] = test system: Linezolid Resistant Streptococcus pneumoniae; assay: MIC by agar dilution, Linezolid Resistant Streptococcus pneumoniae; settings: agar with 5% defibrinated horse blood, 10^4 CFU/spot, 37° C., 5% carbon dioxide, 48 hours
Method: as §1, §2

[7] = test system: Haemophilus influenzae; assay: MIC in Mueller-Hinton broth, Haemophilus influenzae; settings: Mueller-Hinton broth with hemin and NAD, aerobic, 24 hours, 37° C., 5×10^4 CFU/well
Method: as §1, §2

`Cn1nnc(-c2ccc(-c3ccc(N4C[C@H](COc5ccon5)OC4=O)cc3F)cn2)n1` [Example 1] was tested, and the MIC [1] was 4 µg/mL (≈ 9.15 µM), the MIC [2] was 4 µg/mL (≈ 9.15 µM) and the MIC [3] was 4 µg/mL (≈ 9.15 µM). For the same compound, the MIC [4] was 1 µg/mL (≈ 2.29 µM), the MIC [5] was 4 µg/mL (≈ 9.15 µM) and the MIC [6] was 64 µg/mL (≈ 146 µM). The MIC [7] was 64 µg/mL (≈ 146 µM).
